{"source": "patent US20250243176A1", "about": "“(S)-1-(1-ACRYLOYLPIPERIDIN-3-YL)-2-FLUORO-5,6,7,8,9,10-HEXAHYDROCYCLO HEPTA[B]INDOLE-4-CARBOXAMIDE, AND RELATED CRYSTALLINE FORMS, COMPOSITIONS, AND METHODS THEREOF” (GB005, Inc., priority 2021, published 2025)", "key": {"[1]": {"assay": "Stability testing of formulations and Compound 1 alone (impurities, HPLC)", "assay_type": "physicochemical", "details": "40° C.", "method": "Both gels were prepared using Titanium Dioxide, Iron Oxide, Red and FD&C Blue #1 as colorants. One dried swatch of gel 004007 was added to the gel 1 samples and one dried swatch of 004013 was added to gel 2.\nThe samples were stored in 6 mL amber glass vials at: room temperature, 40° C., 50° C. and 5° C. for up 8 weeks. Control samples (Compound 1 alone) were analyzed in parallel with the study samples and control peaks were subtracted from the total impurities."}, "[2]": {"assay": "Phase 1 food effect on pharmacokinetics", "assay_type": "in vivo, human", "details": "for Tmax / half-life / AUC(0-inf) / Cmax: human, plasma, oral; for AUC(0-inf) / Cmax: mean", "text": "Cohort 11 is a randomized, 2-treatment, 2-period, 2-sequence, single-dose level food effect evaluation. The formulation used in Cohort 11 is Formulation A. In Treatment Sequence FH, subjects receive Compound 1 in the fasted state on Day 1, and a second dose in the fed state (high-fat, high-calorie meal) on Day 8. In Treatment Sequence HF, subjects receive Compound 1 in the fed state (high-fat, high-calorie meal) on Day 1 and a second dose in the fasted state on Day 8. Days 2-7 are washout days.\nResults: Preliminary pharmacokinetic results evaluating the effect of food on Compound 1 PK are presented, including 12 subjects from Cohort 11, […] 15 mg under fasting conditions, or in a fed state (with a moderate-fat meal or with a high-fat high-calorie meal). Preliminary PK parameters are presented in Table 48 (all pharmacokinetic parameters of […] are reported as Mean (% coefficient of variation), except for Tmax and t/2, which are reported as Median (Min, Max)), and in FIG. 28."}, "[3]": {"assay": "Solubility testing in vehicle, HPLC (Form III)", "assay_type": "physicochemical", "details": "loading 50 mg/mL", "method": "In each of the following studies (Examples 6-10), the starting material was Compound 1 (free form, not salt) Form III. The material was a light yellow solid, comprising non-hygroscopic irregular shaped crystal with aggregation. The same analytical methods as described in Example 1 were employed.\nVehicle solutions were prepared as follows:\nSolubility was determined at room temperature for 24 and 72 hours and at 45° C. for 4 and 24 hours. About 30/100 mg Compound 1 was added to vehicle (2 mL) and the mixture stirred at room temperature for 24 or 72 hours. The suspensions were filtered or centrifuged, and the filtrate analyzed by HPLC."}, "[4]": {"details": "15 mg, Cohort 11, 15 mg single dose, Fasted"}, "[5]": {"details": "15 mg, Cohort 11, 15 mg single dose, High-Fat"}, "[6]": {"details": "15 mg, Cohorts 2 and 7, 15 mg single dose, Moderate-Fat"}}, "note": "Where two headings read alike, the source gives them in different places."}
{"smiles": "C=CC(=O)N1CCC[C@@H](c2c(F)cc(C(N)=O)c3[nH]c4c(c23)CCCCC4)C1", "note": "[Compound 1, (S)-1-(1-acryloylpiperidin-3-yl)-2-fluoro-5,6,7,8,9,10-hexahydrocyclohepta[b]indole-4-carboxamide]", "values": [{"measurement": "Compound 1 Related Impurities, RRT 0.73", "setting": "[1]; T = 0", "value": 0.05, "unit": "% adjusted area"}, {"measurement": "Compound 1 Related Impurities, RRT 0.79", "setting": "[1]; T = 0", "value": "<LOQ"}, {"measurement": "Compound 1 Related Impurities, RRT 0.84", "setting": "[1]; T = 0", "value": 0.07, "unit": "% adjusted area"}, {"measurement": "Compound 1 Related Impurities, RRT 0.91", "setting": "[1]; T = 0", "value": 0.10, "unit": "% adjusted area"}, {"measurement": "Compound 1 Related Impurities, RRT 0.93", "setting": "[1]; T = 0", "value": 0.06, "unit": "% adjusted area"}, {"measurement": "Compound 1 Related Impurities, RRT 1.08", "setting": "[1]; T = 0", "value": 0.07, "unit": "% adjusted area"}, {"measurement": "Compound 1 Related Impurities, RRT 1.13", "setting": "[1]; T = 0", "value": 0.36, "unit": "% adjusted area"}, {"measurement": "Compound 1 Related Impurities, Total", "setting": "[1]; T = 0", "value": 0.71, "unit": "% adjusted area"}, {"measurement": "Compound 1 Related Impurities, RRT 0.73", "setting": "[1]; T = 3 weeks", "value": 0.06, "unit": "% adjusted area"}, {"measurement": "Compound 1 Related Impurities, RRT 0.79", "setting": "[1]; T = 3 weeks", "value": "<LOQ"}, {"measurement": "Compound 1 Related Impurities, RRT 0.84", "setting": "[1]; T = 3 weeks", "value": 0.05, "unit": "% adjusted area"}, {"measurement": "Compound 1 Related Impurities, RRT 0.91", "setting": "[1]; T = 3 weeks", "value": 0.07, "unit": "% adjusted area"}, {"measurement": "Compound 1 Related Impurities, RRT 0.93", "setting": "[1]; T = 3 weeks", "value": 0.07, "unit": "% adjusted area"}, {"measurement": "Compound 1 Related Impurities, RRT 1.08", "setting": "[1]; T = 3 weeks", "value": 0.07, "unit": "% adjusted area"}, {"measurement": "Compound 1 Related Impurities, RRT 1.13", "setting": "[1]; T = 3 weeks", "value": 0.30, "unit": "% adjusted area"}, {"measurement": "Compound 1 Related Impurities, Total", "setting": "[1]; T = 3 weeks", "value": 0.62, "unit": "% adjusted area"}, {"measurement": "Compound 1 Related Impurities, RRT 0.47", "setting": "[1]; T = 8 weeks", "value": 0.07, "unit": "% adjusted area"}, {"measurement": "Compound 1 Related Impurities, RRT 0.73", "setting": "[1]; T = 8 weeks", "value": 0.05, "unit": "% adjusted area"}, {"measurement": "Compound 1 Related Impurities, RRT 0.79", "setting": "[1]; T = 8 weeks", "value": "<LOQ"}, {"measurement": "Compound 1 Related Impurities, RRT 0.84", "setting": "[1]; T = 8 weeks", "value": 0.06, "unit": "% adjusted area"}, {"measurement": "Compound 1 Related Impurities, RRT 0.91", "setting": "[1]; T = 8 weeks", "value": 0.08, "unit": "% adjusted area"}, {"measurement": "Compound 1 Related Impurities, RRT 0.93", "setting": "[1]; T = 8 weeks", "value": 0.05, "unit": "% adjusted area"}, {"measurement": "Compound 1 Related Impurities, RRT 1.04", "setting": "[1]; T = 8 weeks", "value": 0.12, "unit": "% adjusted area"}, {"measurement": "Compound 1 Related Impurities, RRT 1.08", "setting": "[1]; T = 8 weeks", "value": 0.06, "unit": "% adjusted area"}, {"measurement": "Compound 1 Related Impurities, RRT 1.13", "setting": "[1]; T = 8 weeks", "value": 0.32, "unit": "% adjusted area"}, {"measurement": "Compound 1 Related Impurities, Total", "setting": "[1]; T = 8 weeks", "value": 0.81, "unit": "% adjusted area"}, {"measurement": "AUC0-inf, High-Fat/Fasted % GMR - paired", "setting": "[2]; 15 mg single dose", "value": 120.3, "unit": "%"}, {"measurement": "AUC0-inf, Moderate-Fat/Fasted % GMR - unpaired", "setting": "[2]; 15 mg single dose", "value": 107.9, "unit": "%"}, {"measurement": "Cmax, High-Fat/Fasted % GMR - paired", "setting": "[2]; 15 mg single dose", "value": 68.0, "unit": "%"}, {"measurement": "Cmax, Moderate-Fat/Fasted % GMR - unpaired", "setting": "[2]; 15 mg single dose", "value": 74.1, "unit": "%"}, {"measurement": "Tmax", "setting": "[2]; both sexes, 15 mg, single 15 mg dose, fasting, moderate-fat meal or high-fat high-calorie meal, read-out: mean plasma Tmax", "value": "1 to 2.5", "unit": "h"}, {"measurement": "half-life", "setting": "[2]; both sexes, 15 mg, single 15 mg dose, fasting, moderate-fat meal or high-fat high-calorie meal, read-out: terminal half-life (converted)", "value": "~3", "unit": "h"}, {"measurement": "AUC(0-inf)", "setting": "[2]; [4]", "value": 312, "unit": "ng·h/mL"}, {"measurement": "Cmax", "setting": "[2]; [4]", "value": 137, "unit": "ng/mL"}, {"measurement": "half-life", "setting": "[2]; 15 mg, Cohort 11, 15 mg single dose, Fasted, median, read-out: T1/2 (converted)", "value": 2.89, "unit": "h"}, {"measurement": "Tmax", "setting": "[2]; 15 mg, Cohort 11, 15 mg single dose, Fasted, median, read-out: Tmax", "value": 1, "unit": "h"}, {"measurement": "AUC(0-inf)", "setting": "[2]; [5]", "value": 356, "unit": "ng·h/mL"}, {"measurement": "Cmax", "setting": "[2]; [5]", "value": 85.5, "unit": "ng/mL"}, {"measurement": "half-life", "setting": "[2]; 15 mg, Cohort 11, 15 mg single dose, High-Fat, median, read-out: T1/2 (converted)", "value": 2.99, "unit": "h"}, {"measurement": "Tmax", "setting": "[2]; 15 mg, Cohort 11, 15 mg single dose, High-Fat, median, read-out: Tmax", "value": 2.5, "unit": "h"}, {"measurement": "AUC(0-inf)", "setting": "[2]; [6]", "value": 322, "unit": "ng·h/mL"}, {"measurement": "Cmax", "setting": "[2]; [6]", "value": 101, "unit": "ng/mL"}, {"measurement": "half-life", "setting": "[2]; 15 mg, Cohorts 2 and 7, 15 mg single dose, Moderate-Fat, median, read-out: T1/2 (converted)", "value": 2.9, "unit": "h"}, {"measurement": "Tmax", "setting": "[2]; 15 mg, Cohorts 2 and 7, 15 mg single dose, Moderate-Fat, median, read-out: Tmax", "value": 1.5, "unit": "h"}, {"measurement": "effect of food on PK", "setting": "[2]; moderate fat, or high-fat high calorie meal, 15 mg", "value": "no clinically significant effect"}, {"measurement": "Solubility", "setting": "[3]; Capryol 90, RT, 72 h, pH 6.5", "value": ">50", "unit": "mg/mL"}, {"measurement": "Solubility", "setting": "[3]; Cremophor HS 15, 45° C., 24 h, pH 7.5", "value": ">50", "unit": "mg/mL"}, {"measurement": "Solubility", "setting": "[3]; Gelucire 44/14, 45° C., 24 h, pH 5.8", "value": ">50", "unit": "mg/mL"}, {"measurement": "Solubility", "setting": "[3]; Gelucire 48/16, 45° C., 24 h", "value": ">50", "unit": "mg/mL"}, {"measurement": "Solubility", "setting": "[3]; Labrasol, RT, 72 h, pH 6.4", "value": ">50", "unit": "mg/mL"}, {"measurement": "Solubility", "setting": "[3]; PEG400/TPGS(3/1), 45° C., 24 h, pH 6.1", "value": ">50", "unit": "mg/mL"}, {"measurement": "Solubility", "setting": "[3]; PEG400, RT, 72 h, pH 6.7", "value": ">50", "unit": "mg/mL"}, {"measurement": "Solubility", "setting": "[3]; PG, RT, 72 h, pH 5.2", "value": ">50", "unit": "mg/mL"}]}
